Test results as given in patent US7435837B2, “Dihydrobenzofuranyl alkanamine derivatives and methods for using same” (Wyeth, priority 2003, dated 2008).
Where a name gives a salt, the structure may show the parent alone.

SMILES | melting point
NCC1Cc2cccc(-c3ccccc3F)c2O1 (single isomer, unassigned; (-)) (as salt: hydrochloride) [Example 52, (−)-1-[7-(2-fluorophenyl)-2,3-dihydro-1-benzofuran-2-yl]methanamine] | 224 to 225 °C
NCC1Cc2cccc(-c3ccc(F)cc3)c2O1 (single isomer, unassigned; (+)) (as salt: hydrobromid) [Example 74, (+)-1-[7-(4-fluorophenyl)-2,3-dihydro-1-benzofuran-2-yl]methanamine] | 207 to 208 °C
NCC1Cc2cccc(-c3cccc(Cl)c3)c2O1 (single isomer, unassigned; (+)) (as salt: hydrobromid) [Example 66, (+)-1-[7-(3-chlorophenyl)-2,3-dihydro-1-benzofuran-2-yl]methanamine] | 187 to 189 °C
NCC1Cc2cc(Cl)cc(-c3ccccc3)c2O1 (racemic) (as salt: hydrochloride) [Example 84, (±)-1-(5-chloro-7-phenyl-2,3-dihydro-1-benzofuran-2-yl)methanamine] | 258 °C (dec.)
Cc1cccc(-c2cccc3c2OC(CN)C3)c1 (single isomer, unassigned; (-)) (as salt: hydrochloride) [Example 43, (−)-1-[7-(3-methylphenyl)-2,3-dihydro-1-benzofuran-2-yl]methanamine] | 194 to 196 °C
Cc1cccc(-c2cccc3c2OC(CN)C3)c1 (single isomer, unassigned; (+)) (as salt: hydrochloride) [Example 42, (+)-1-[7-(3-methylphenyl)-2,3-dihydro-1-benzofuran-2-yl]methanamine] | 196 to 198 °C
CNCC1Cc2cc(Cl)cc(C3CCCCC3)c2O1 (racemic) (as salt: hydrochloride) [Example 12, (±)-N-[(5-chloro-7-cyclohexyl-2,3-dihydro-1-benzofuran-2-yl)methyl]-N-methylamine] | 125 to 128 °C
NCC1Cc2cccc(-c3ccccc3C(F)(F)F)c2O1 (single isomer, unassigned; (+)) (as salt: hydrochloride) [Example 55, (+)-1-{7-[2-(trifluoromethyl)phenyl]-2,3-dihydro-1-benzofuran-2-yl}methanamine] | 97 to 100 °C
NCC1Cc2cccc(-c3ccsc3)c2O1 (single isomer, unassigned; (-)) (as salt: hydrobromid) [Example 46, (−)-1-(7-thien-3-yl-2,3-dihydro-1-benzofuran-2-yl)methanamine] | 234 to 235 °C
CC(C)(C)c1cccc2c1OC(CN)C2 (single isomer, unassigned; (-)) (as salt: hydrochloride) [Example 25, (−)-1-(7-tert-butyl-2,3-dihydro-1-benzofuran-2-yl)methanamine] | 178 to 180 °C
COc1ccc(-c2cccc3c2OC(CN)C3)cc1 (single isomer, unassigned; (+)) (as salt: hydrochloride) [Example 80, (+)-1-[7-(4-methoxyphenyl)-2,3-dihydro-1-benzofuran-2-yl]methanamine] | 183 to 186 °C
Cc1cccc(-c2cc(Cl)cc3c2OC(CN)C3)c1 (racemic) (as salt: hydrochloride) [Example 88, (±)-1-[5-chloro-7-(3-methylphenyl)-2,3-dihydro-1-benzofuran-2-yl]methanamine] | 268 to 271 °C
Cc1cccc(-c2cccc3c2OC(CN)C3)c1 (racemic) (as salt: hydrochloride) [Example 41, (±)-1-[7-(3-methylphenyl)-2,3-dihydro-1-benzofuran-2-yl]methanamine] | > 210 °C (dec.)
NCC1Cc2cccc(-c3ccccc3F)c2O1 (single isomer, unassigned; (+)) (as salt: hydrochloride) [Example 51, (+)-1-[7-(2-fluorophenyl)-2,3-dihydro-1-benzofuran-2-yl]methanamine] | 227 to 228 °C
Cc1ccccc1-c1cc(Cl)cc2c1OC(CN)C2 (racemic) (as salt: salt) [Example 95, (±)-1-[5-chloro-7-(2-methylphenyl)-2,3-dihydro-1-benzofuran-2-yl]methanamine] | 160 to 163 °C
NCC1Cc2cccc(-c3ccc(Cl)cc3)c2O1 (single isomer, unassigned; (+)) (as salt: hydrobromid) [Example 77, (+)-1-[7-(4-chlorophenyl)-2,3-dihydro-1-benzofuran-2-yl]methanamine] | 229 to 231 °C
NCC1Cc2cccc(-c3ccccc3C(F)(F)F)c2O1 (single isomer, unassigned; (-)) (as salt: hydrochloride) [Example 54, (−)-1-{7-[2-(trifluoromethyl)phenyl]-2,3-dihydro-1-benzofuran-2-yl}methanamine] | 109 to 111 °C
COc1ccccc1-c1cccc2c1OC(CN)C2 (racemic) (as salt: hydrochloride) [Example 59, (±)-1-[7-(2-methoxyphenyl)-2,3-dihydro-1-benzofuran-2-yl]methanamine] | > 250 °C
NCC1Cc2cccc(-c3cccc(C(F)(F)F)c3)c2O1 (racemic) (as salt: hydrochloride) [Example 69, (±)-1-{7-[3-(trifluoromethyl)phenyl]-2,3-dihydro-1-benzofuran-2-yl}methanamine] | 172 to 174 °C
NCC1Cc2c(cccc2-c2ccccc2)O1 (single isomer, unassigned; (+)) (as salt: hydrobromid) [Example 2, (+)-1-(4-phenyl-2,3-dihydro-1-benzofuran-2-yl)methanamine] | 225 to 226 °C
NCC1Cc2cccc(Cc3ccccc3)c2O1 (racemic) (as salt: hydrochloride) [Example 15, (±)-1-(7-benzyl-2,3-dihydro-1-benzofuran-2-yl)methanamine] | 107 to 111 °C (dec.)
COc1cc2c(c(C(C)(C)C)c1)OC(CN)C2 (racemic) (as salt: hydrochloride) [Example 13, (±)-(7-tert-butyl-5-methoxy-2,3-dihydro-1-benzofuran-2-yl)methylamine] | 174 to 176 °C
NCC1Cc2cccc(-c3ccccc3C(F)(F)F)c2O1 (racemic) (as salt: hydrochloride) [Example 53, (±)-1-{7-[2-(trifluoromethyl)phenyl]-2,3-dihydro-1-benzofuran-2-yl}methanamine] | 204 to 205 °C
CNCC1Cc2cc(Cl)cc(-c3ccsc3)c2O1 (single isomer, unassigned; (+)) (as salt: hydrochloride) [Example 93, (+)-N-[(5-chloro-7-thien-3-yl-2,3-dihydro-1-benzofuran-2-yl)methyl]-N-methylamine] | 263 to 266 °C

Next, values leading:

melting point | SMILES
222 to 224 °C | NCC1Cc2cccc(-c3ccc(F)cc3F)c2O1 (racemic) (as salt: hydrochloride) [Example 146, (±)-1-[7-(2,4-difluorophenyl)-2,3-dihydro-1-benzofuran-2-yl]methanamine]
239 to 241 °C | Cc1ccc(-c2cccc3c2CC(CN)O3)cc1 (racemic) (as salt: hydrochloride) [Example 121, (±)-1-[4-(4-methylphenyl)-2,3-dihydro-1-benzofuran-2-yl]methanamine]
158 to 160 °C | CC(C)(C)CCc1cccc2c1OC(CN)C2 (racemic) (as salt: hydrochloride) [Example 118, (±)-1-[7-(3,3-dimethylbutyl)-2,3-dihydro-1-benzofuran-2-yl]methanamine]
156 to 158 °C | COc1cccc(-c2cccc3c2OC(CN)C3)c1 (single isomer, unassigned; (+)) (as salt: hydrochloride) [Example 133, (+)-1-[7-(3-methoxyphenyl)-2,3-dihydro-1-benzofuran-2-yl]methanamine]
209 to 211 °C | NCC1Cc2cccc(/C=C/c3ccccc3)c2O1 (racemic) (as salt: hydrochloride) [Example 119, (±)-1-{7-[(E)-2-phenylvinyl]-2,3-dihydro-1-benzofuran-2-yl}methanamine]
201 to 204 °C | NCC1Cc2cccc(-c3ccc(Cl)cc3Cl)c2O1 (single isomer, unassigned; (+)) (as salt: hydrochloride) [Example 150, (+)-1-[7-(2,4-dichlorophenyl)-2,3-dihydro-1-benzofuran-2-yl]methanamine]
183 to 185 °C | Cc1cc(Cl)ccc1-c1cc(F)cc2c1O[C@@H](CN)C2 (as salt: hydrochloride) [Example 549, {[(2R)-7-(4-chloro-2-methylphenyl)-5-fluoro-2,3-dihydro-1-benzofuran-2-yl]methyl}amine]
186 to 188 °C | NCC1Cc2cccc(-c3cccc(F)c3)c2O1 (single isomer, unassigned; (+)) (as salt: hydrochloride) [Example 131, (+)-1-[7-(3-fluorophenyl)-2,3-dihydro-1-benzofuran-2-yl]methanamine]
207 to 209 °C | NCC1Cc2cccc(-c3c(Cl)cccc3Cl)c2O1 (single isomer, unassigned; (-)) (as salt: hydrochloride) [Example 141, (−)-1-[7-(2,6-dichlorophenyl)-2,3-dihydro-1-benzofuran-2-yl]methanamine]
226 to 229 °C | NCC1Cc2cccc(-c3ccc(C(F)(F)F)cc3)c2O1 (single isomer, unassigned; (+)) (as salt: hydrochloride) [Example 137, (+)-1-{7-[4-(trifluoromethyl)phenyl]-2,3-dihydro-1-benzofuran-2-yl}methanamine]
127 to 129 °C | Cc1ccccc1-c1cc(C#N)cc2c1OC(CN)C2 (racemic) (as salt: hydrochloride) [Example 311, (±)-2-(aminomethyl)-7-(2-methylphenyl)-2,3-dihydro-1-benzofuran-5-carbonitrile]
227 to 228 °C | Cc1cc2c(c(-c3ccccc3)c1)OC(CN)C2 (racemic) (as salt: hydrochloride) [Example 281, (±)-{[(5-methyl-7-phenyl-2,3-dihydro-1-benzofuran-2-yl)methyl]amine]
